Where a name gives a salt, the structure may show the parent alone.
What was measured:
[1] = molecular target: T1, full-length proMMP9(1-707) (SEQ ID NO:1) (Homo sapiens, UniProt P14780, R574P); assay: proMMP9/MMP3 P126 Activation Assay; format: biochemical; conditions: 20 nM proMMP9, 20 nM MMP3, 80 min 37° C.
T1 construct: made in house; host or cells: HEK293 (proMMP9, secreted); E. coli (MMP3)
Procedure: The reaction volume was 50 μL. […] Reactivity of residual MMP3 towards P-126 substrate was minimal under these conditions.

[2] = molecular target: proMMP13(1-268) (SEQ ID NO:7) (Homo sapiens, UniProt P45452); assay: ThermoFluor binding assay with proMMP13(1-268); set-up: 6xHis (C); made in house; conditions: pH 7.0
In short: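 Thermal shift binding with 3.5 μM protein and 25 μM 1,8-ANS in 50 mM HEPES pH 7.0, 100 mM NaCl, 0.001% Tween-20, 2.5 mM MgCl2, 300 μM CaCl2. Samples were heated 40 to 90 °C at 1 °C/min, fluorescence read at 500 nm. Tm shifts across an 11-point DMSO dilution series were fitted with DSC-derived thermodynamic parameters.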

[3] = molecular target: T2, proMMP9(67-444;ΔFnII) (SEQ ID NO:5) (Homo sapiens, UniProt P14780, DEL216-390); assay: ThermoFluor binding assay with proMMP9(67-444;ΔFnII); conditions: pH 7.0
T2 construct: start methionine (N); made in house; host or cells: E. coli BL21(DE3) RIL
T2 sequence (P14780 with tags, fused parts or gaps DEL216-390): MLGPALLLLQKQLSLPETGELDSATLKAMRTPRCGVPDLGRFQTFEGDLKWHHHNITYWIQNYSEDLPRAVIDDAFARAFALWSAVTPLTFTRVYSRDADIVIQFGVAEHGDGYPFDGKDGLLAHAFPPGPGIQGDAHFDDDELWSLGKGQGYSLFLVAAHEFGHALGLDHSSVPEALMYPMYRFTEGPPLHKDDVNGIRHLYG
In short: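 Thermal shift binding with 3.5 μM proMMP9(67-444;ΔFnII) and 50 μM 1,8-ANS in 50 mM HEPES pH 7.0, 100 mM NaCl, 2.5 mM MgCl2, 300 μM CaCl2, 0.001% Tween-20, with serially diluted compound. Heated 40 to 90° C at 1° C/min; fluorescence-derived Tm fitted using DSC/ThermoFluor thermodynamic parameters.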

[4] = molecular target: T3, proMMP9(20-445;ΔFnII) (SEQ ID NO:6) (Homo sapiens, UniProt P14780, DEL216-390); assay: ThermoFluor binding assay with proMMP9(20-445;ΔFnII); conditions: pH 7.0
T3 construct: start methionine (N); made in house; host or cells: E. coli BL21(DE3) RIL
T3 sequence (P14780 with tags, fused parts or gaps DEL216-390): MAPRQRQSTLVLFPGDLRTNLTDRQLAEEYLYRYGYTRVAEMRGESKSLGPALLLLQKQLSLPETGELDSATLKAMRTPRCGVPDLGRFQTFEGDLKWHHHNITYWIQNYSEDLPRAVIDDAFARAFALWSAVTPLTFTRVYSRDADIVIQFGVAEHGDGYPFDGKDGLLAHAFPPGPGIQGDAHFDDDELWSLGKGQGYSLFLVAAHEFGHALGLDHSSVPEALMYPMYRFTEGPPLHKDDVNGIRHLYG
In short: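 proMMP9(20-445;ΔFnII) at 2.8 μM with 50 μM 1,8-ANS in 50 mM HEPES pH 7.0, 100 mM NaCl, 0.001% Tween-20, 2.5 mM MgCl2, 300 μM CaCl2; compounds serially diluted in DMSO. Heated 40–90 °C at 1 °C/min, fluorescence read at 500±25 nm. Tm fit by standard equations; binding fit using DSC/TF-derived thermodynamic parameters.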

T1 sequence (P14780 20-707 R574P): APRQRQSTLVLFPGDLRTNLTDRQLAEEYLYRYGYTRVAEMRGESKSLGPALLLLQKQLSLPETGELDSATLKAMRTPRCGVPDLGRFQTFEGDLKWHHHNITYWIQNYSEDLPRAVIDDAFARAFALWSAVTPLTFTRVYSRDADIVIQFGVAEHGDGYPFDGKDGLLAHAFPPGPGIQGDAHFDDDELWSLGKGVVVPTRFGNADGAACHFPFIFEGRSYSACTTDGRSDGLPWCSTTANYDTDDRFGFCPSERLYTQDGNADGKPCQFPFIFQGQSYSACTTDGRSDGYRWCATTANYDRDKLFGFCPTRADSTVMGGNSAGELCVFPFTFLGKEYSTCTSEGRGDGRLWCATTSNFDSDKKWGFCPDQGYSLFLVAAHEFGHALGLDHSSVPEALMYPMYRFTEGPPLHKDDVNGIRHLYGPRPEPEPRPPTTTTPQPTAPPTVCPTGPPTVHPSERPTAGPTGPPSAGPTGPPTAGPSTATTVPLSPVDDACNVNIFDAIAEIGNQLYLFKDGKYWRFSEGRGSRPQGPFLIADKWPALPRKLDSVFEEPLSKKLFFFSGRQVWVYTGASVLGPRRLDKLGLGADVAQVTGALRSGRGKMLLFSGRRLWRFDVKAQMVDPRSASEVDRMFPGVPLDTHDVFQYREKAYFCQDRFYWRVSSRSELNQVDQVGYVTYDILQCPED

SMILES | IC50 [1] [nM] | Kd [2] [nM] | Kd [3] [nM] | Kd [4] [nM]
CCOc1ccc(C(N)=O)cc1Nc1nc(-c2sc(C(=O)N3CCCN(C(C)C)CC3)nc2C)cs1 [Example 116, 4-Ethoxy-3-[2′-(4-isopropyl-[1,4]diazepane-1-carbonyl)-4′-methyl-[4,5]bithiazolyl-2-ylamino]-benzamide.TFA] | 500 | 6700 | 1400 | 2700
CCOc1ccc(C(N)=O)cc1Nc1nc(-c2sc(C(=O)N3CCN(C(C)C)CC3)nc2C)cs1 [Example 118, 4-Ethoxy-3-[2′-(4-isopropyl-piperazine-1-carbonyl)-4′-methyl-[4,5]bithiazolyl-2-ylamino]-benzamide.TFA] | 1100 | 5500 | 1200 | 640
CCOc1ccc(C(N)=O)cc1Nc1nc(-c2sc(C(=O)N3CCCN(C)CC3)nc2C)cs1 [Example 119, 4-Ethoxy-3-[4′-methyl-2′-(4-methyl-[1,4]diazepane-1-carbonyl)-[4,5′]bithiazolyl-2-ylamino]-benzamide.TFA] | 520 | 6200 | 2200 | 3300
CCOc1ccc(C(N)=O)cc1Nc1nc(-c2sc(C(=O)NC3CCN(C)CC3)nc2C)cs1 [Example 121, 2-(5-Carbamoyl-2-ethoxy-phenylamino)-4′-methyl-[4,5′]bithiazolyl-2′-carboxylic acid (1-methyl-piperidin-4-yl)-amide.TFA] | 370 | 8700 | 1200 | 2400
CCOc1ccc(C(N)=O)cc1Nc1nc(-c2sc(C(=O)NC3CCN(C(C)C)CC3)nc2C)cs1 [Example 122, 2-(5-Carbamoyl-2-ethoxy-phenylamino)-4′-methyl-[4,5′]bithiazolyl-2′-carboxylic acid (1-isopropyl-piperidin-4-yl)-amide.TFA] | 250 | 4900 | 670 | 830
Cc1nc(CN2CCCN(C)CC2)sc1-c1csc(Nc2cc(C(N)=O)ccc2OC(C)C)n1 [Example 126, 4-Isopropoxy-3-[4′-methyl-2′-(4-methyl-[1,4]diazepan-1-ylmethyl)-[4,5′]bithiazolyl-2-ylamino]-benzamide.TFA] | 770 | 11000 | 4700 | 1100
Cc1nc(CN2CCC(O)CC2)sc1-c1csc(Nc2cc(C(N)=O)ccc2OC(C)C)n1 [Example 127, 3-[2′-(4-Hydroxy-piperidin-1-ylmethyl)-4′-methyl-[4,5′]bithiazolyl-2-ylamino]-4-isopropoxy-benzamide.TFA] | 650 | 8600 | 3500 | 730
Cc1nc(CN2CCCC2)sc1-c1csc(Nc2cc(C(N)=O)ccc2OC(C)C)n1 [Example 130, 4-Isopropoxy-3-(4′-methyl-2′-pyrrolidin-1-ylmethyl-[4,5′]bithiazolyl-2-ylamino)-benzamide.TFA] | 700 | 4900 | 3000 | 550
Cc1nc(CN2CCN(C)CC2)sc1-c1csc(Nc2cc(C(N)=O)ccc2OC(C)C)n1 [Example 131, 4-Isopropoxy-3-[4′-methyl-2′-(4-methyl-piperazin-1-ylmethyl)-[4,5′]bithiazolyl-2-ylamino]-benzamide.TFA] | 730 | 5600 | 3300 | 770
Cc1nc(CN(C)CCN(C)C)sc1-c1csc(Nc2cc(C(N)=O)ccc2OC(C)C)n1 [Example 133, 3-(2′-{[(2-Dimethylamino-ethyl)-methyl-amino]-methyl}-4′-methyl-[4,5]bithiazolyl-2-ylamino)-4-isopropoxy-benzamide.TFA] | 660 | 3800 | 4000 | 970
COc1ccc(-c2cn[nH]c2)cc1Nc1nc(-c2sc(C)nc2C)cs1 [Example 138, (2′,4′-Dimethyl-[4,5′]bithiazolyl-2-yl)-[2-methoxy-5-(1H-pyrazol-4-yl)-phenyl]-amine] | 730 | 830 | 480 | 1700
COc1ccc(-c2ccnn2C)cc1Nc1nc(-c2sc(C)nc2C)cs1 [Example 139] | 5200 | 8100 | 11000 | 75000
C=Cc1ccc(OC)c(Nc2nc(-c3sc(C)nc3C)cs2)c1 [Example 140, (2′,4′-Dimethyl-[4,5′]bithiazolyl-2-yl)-(2-methoxy-5-vinyl-phenyl)-amine] | 5500 | 26000 | 45000 | > 95000
COc1ccc(-c2nccs2)cc1Nc1nc(-c2sc(C)nc2C)cs1 [Example 142, (2′,4′-Dimethyl-[4,5′]bithiazolyl-2-yl)-(2-methoxy-5-thiazol-2-yl-phenyl)-amine.TFA] | 11000 | 6700 | 58000 | > 95000

Next, values leading:

IC50 [1] [nM] | Kd [2] [nM] | Kd [3] [nM] | Kd [4] [nM] | SMILES
670 | 6900 | 2000 | 680 | CCOc1ccc(C(N)=O)cc1Nc1nc(-c2sc(C(=O)N3CCN(CC)CC3)nc2C)cs1 [Example 117, 4-Ethoxy-3-[2′-(4-ethyl-piperazine-1-carbonyl)-4′-methyl-[4,5]bithiazolyl-2-ylamino]-benzamide.TFA]
480 | 5600 | 1600 | 2500 | CCOc1ccc(C(N)=O)cc1Nc1nc(-c2sc(C(=O)N3CCCN(CC)CC3)nc2C)cs1 [Example 120, 4-Ethoxy-3-[2′-(4-ethyl-[1,4]diazepane-1-carbonyl)-4′-methyl-[4,5]bithiazolyl-2-ylamino]-benzamide.TFA]
440 | 1800 | 1000 | 280 | CCOc1ccc(C(N)=O)cc1Nc1nc(-c2sc(C(=O)N(C)CCN(C)C)nc2C)cs1 [Example 123, 2-(5-Carbamoyl-2-ethoxy-phenylamino)-4′-methyl-[4,5′]bithiazolyl-2′-carboxylic acid (2-dimethylamino-ethyl)-methyl-amide.TFA]
670 | 6100 | 3700 | 650 | Cc1nc(CN2CCOCC2)sc1-c1csc(Nc2cc(C(N)=O)ccc2OC(C)C)n1 [Example 124, 4-Isopropoxy-3-(4′-methyl-2′-morpholin-4-ylmethyl-[4,5′]bithiazolyl-2-ylamino)-benzamide.TFA]
780 | 4900 | 3200 | 580 | Cc1nc(CN2CCN(C(C)C)CC2)sc1-c1csc(Nc2cc(C(N)=O)ccc2OC(C)C)n1 [Example 125, 4-Isopropoxy-3-[2′-(4-isopropyl-piperazin-1-ylmethyl)-4′-methyl-[4,5]bithiazolyl-2-ylamino]-benzamide.TFA]
1300 | 5200 | 2700 | 500 | Cc1nc(CN2CCCCC2)sc1-c1csc(Nc2cc(C(N)=O)ccc2OC(C)C)n1 [Example 128, 4-Isopropoxy-3-(4′-methyl-2′-piperidin-1-ylmethyl-[4,5′]bithiazolyl-2-ylamino)-benzamide.TFA]
1200 | 5100 | 4700 | 720 | Cc1nc(CN(C)C)sc1-c1csc(Nc2cc(C(N)=O)ccc2OC(C)C)n1 [Example 129, 3-(2′-Dimethylaminomethyl-4′-methyl-[4,5′]bithiazolyl-2-ylamino)-4-isopropoxy-benzamide.TFA]
720 | 11000 | 21000 | 4300 | Cc1nc(S(C)(=O)=O)sc1-c1csc(Nc2cc(C(N)=O)ccc2OC(C)C)n1 [Example 132, 4-Isopropoxy-3-(2′-methanesulfonyl-4′-methyl-[4,5′]bithiazolyl-2-ylamino)-benzamide]
~12000 | 4300 | 15000 | > 95000 | COc1ccc(-c2cccnc2)cc1Nc1nc(-c2sc(C)nc2C)cs1 [Example 141, (2′,4′-Dimethyl-[4,5′]bithiazolyl-2-yl)-(2-methoxy-5-pyridin-3-yl-phenyl)-amine]
